In ChEMBL document CHEMBL1201862, “PubChem BioAssay data set” (2004):
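The compound was tested at five concentrations on cells cultured in 96-well plates, with a 48-hour exposure period. Abbreviation: GI50, concentration required for 50% inhibition of growth.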 Activity calls are given as the source filed them. Cut-off read from the data, not from the text of the source: active = GI50 up to about 1.1 µM and inactive = higher.

How the values were obtained:
Experiment in all cases: NCI-60 cell line screen, 48 h
[1] = tested on: UACC-257
[2] = tested on: HL-60
[3] = tested on: SNB-75
[4] = tested on: SF-539
[5] = tested on: SNB-19
[6] = tested on: HOP-92
[7] = tested on: OVCAR-3
[8] = tested on: SN12C
[9] = tested on: SK-MEL-5
[10] = tested on: U-251
[11] = tested on: IGROV-1
[12] = tested on: CAKI-1
[13] = tested on: MOLT-4
[14] = tested on: RPMI-8226
[15] = tested on: HT-29
[16] = tested on: UACC-62
[17] = tested on: RXF 393
[18] = tested on: OVCAR-4
[19] = tested on: SK-MEL-2
[20] = tested on: HOP-62

Row | Structure (SMILES) | GI50 [1] | GI50 [2] | GI50 [3] | GI50 [4] | GI50 [5] | GI50 [6] | GI50 [7] | GI50 [8] | GI50 [9] | GI50 [10] | GI50 [11] | GI50 [12] | GI50 [13] | GI50 [14] | GI50 [15] | GI50 [16] | GI50 [17] | GI50 [18] | GI50 [19] | GI50 [20]
1 | N/C(=C\c1ccc(/C=C(\NC(=O)c2ccccc2)c2nc3c([nH]2)C(=O)c2ccccc2C3=O)cc1)c1nc2c([nH]1)C(=O)c1ccccc1C2=O | 17.8 µM (inactive) | 10 µM (inactive) | 3.65 µM (inactive) | 16.6 µM (inactive) | 12.6 µM (inactive) | 7.83 µM (inactive) | 13.6 µM (inactive) | 14.3 µM (inactive) | 16.5 µM (inactive) | 14.3 µM (inactive) | 14.8 µM (inactive) | 14.3 µM (inactive) | 6.7 µM (inactive) | 4.33 µM (inactive) | 14.7 µM (inactive) | 11.5 µM (inactive) | 11.8 µM (inactive) | 11.2 µM (inactive) |  | 
2 | CCOC(=O)/C=C(\C)c1ccc(OC)cc1 | > 100 µM (inactive) | > 100 µM (inactive) | > 100 µM (inactive) | > 100 µM (inactive) | > 100 µM (inactive) | > 100 µM (inactive) |  | > 100 µM (inactive) | > 100 µM (inactive) | > 100 µM (inactive) | > 100 µM (inactive) | > 100 µM (inactive) |  | > 100 µM (inactive) | 88.9 µM (inactive) |  | > 100 µM (inactive) | > 100 µM (inactive) | > 100 µM (inactive) | 
3 | CC(=O)NC1=C[C@@H]([C@H]2COC(C)(C)O2)OC1=O | > 100 µM (inactive) | > 100 µM (inactive) | > 100 µM (inactive) | > 100 µM (inactive) | > 100 µM (inactive) | > 100 µM (inactive) | > 100 µM (inactive) | > 100 µM (inactive) | > 100 µM (inactive) | > 100 µM (inactive) | > 100 µM (inactive) | > 100 µM (inactive) | > 100 µM (inactive) | > 100 µM (inactive) | > 100 µM (inactive) | > 100 µM (inactive) | > 100 µM (inactive) |  | > 100 µM (inactive) | > 100 µM (inactive)
4 | OCCNCN(CNCCO)c1nc(N(CNCCO)CNCCO)nc(N(CNCCO)CNCCO)n1 | 0.0643 µM (active) |  |  | 0.075 µM (active) | 0.0708 µM (active) | 0.0743 µM (active) | 0.0908 µM (active) | 0.131 µM (active) |  | 0.0745 µM (active) | 0.0757 µM (active) |  | 0.0873 µM (active) |  | > 0.4 µM (active) |  | 0.0676 µM (active) | 0.0715 µM (active) | 0.0838 µM (active) | 0.0687 µM (active)
5 | Oc1cc(CN2COc3ccccc32)c(O)cc1CNC1CCCCC1 | 15 µM (inactive) |  | 18.8 µM (inactive) | 19.5 µM (inactive) | > 100 µM (inactive) | 28.2 µM (inactive) | 26.2 µM (inactive) | 30.7 µM (inactive) | 19.3 µM (inactive) | 17.7 µM (inactive) | 32.8 µM (inactive) | 28.3 µM (inactive) | 8.79 µM (inactive) | 23.8 µM (inactive) | 22 µM (inactive) | 23.9 µM (inactive) | 21.5 µM (inactive) | 20.3 µM (inactive) | 23.3 µM (inactive) | 71.1 µM (inactive)
6 | COC(=O)C#Cc1cccc(OC)c1OC | > 100 µM (inactive) | 33 µM (inactive) |  | 21.6 µM (inactive) | 60.3 µM (inactive) | 25.8 µM (inactive) | 41.1 µM (inactive) | 48.1 µM (inactive) | 29.6 µM (inactive) | 31.8 µM (inactive) |  | 28.6 µM (inactive) | 14 µM (inactive) | 30.1 µM (inactive) | 27 µM (inactive) | 48.3 µM (inactive) |  | 20.4 µM (inactive) |  | 98.2 µM (inactive)
7 | CCOC(=O)/C(C#N)=C1/SC(C(=O)N/N=C/c2ccc(OC)cc2)=C(N)N1c1ccccc1 | 59.4 µM (inactive) | > 100 µM (inactive) | 0.318 µM (active) | 1.16 µM (inactive) | > 100 µM (inactive) | 3.82 µM (inactive) | > 100 µM (inactive) |  | 39.4 µM (inactive) | > 100 µM (inactive) | 3.1 µM (inactive) |  | > 100 µM (inactive) | 1.71 µM (inactive) | 31.3 µM (inactive) | > 100 µM (inactive) |  |  |  | 71 µM (inactive)
8 | CC(=O)OC1COC(Nn2c(=O)[nH]c3ccccc3c2=O)C(OC(C)=O)C1OC(C)=O (centres undefined) | > 100 µM (inactive) | > 100 µM (inactive) | 30.3 µM (inactive) | > 100 µM (inactive) | > 100 µM (inactive) | > 100 µM (inactive) | > 100 µM (inactive) | > 100 µM (inactive) | > 100 µM (inactive) | > 100 µM (inactive) | > 100 µM (inactive) | > 100 µM (inactive) | > 100 µM (inactive) | > 100 µM (inactive) | > 100 µM (inactive) | > 100 µM (inactive) |  |  | > 100 µM (inactive) | > 100 µM (inactive)
9 | CCOC(=O)C1S/C(=N\C(=N)N[N+](=O)[O-])N=C1C (centres undefined) | > 100 µM (inactive) | > 100 µM (inactive) | > 100 µM (inactive) | > 100 µM (inactive) | > 100 µM (inactive) | > 100 µM (inactive) | > 100 µM (inactive) | > 100 µM (inactive) |  | > 100 µM (inactive) | > 100 µM (inactive) |  | > 100 µM (inactive) | > 100 µM (inactive) | > 100 µM (inactive) |  | > 100 µM (inactive) | > 100 µM (inactive) | > 100 µM (inactive) | > 100 µM (inactive)
10 | CSc1nc(NC2OCC(O)C(O)C2O)c(N)c(=O)[nH]1 (centres undefined) | > 100 µM (inactive) | > 100 µM (inactive) | > 100 µM (inactive) | > 100 µM (inactive) | > 100 µM (inactive) | > 100 µM (inactive) | > 100 µM (inactive) | > 100 µM (inactive) | > 100 µM (inactive) | > 100 µM (inactive) | > 100 µM (inactive) |  | > 100 µM (inactive) | > 100 µM (inactive) | > 100 µM (inactive) | > 100 µM (inactive) | > 100 µM (inactive) | > 100 µM (inactive) | > 100 µM (inactive) | > 100 µM (inactive)
11 | COc1cc2c(cc1OC)C(C)N(C)c1c-2c(OC(C)=O)cc2cc(OC)c(OC)cc12 (centres undefined) | 11.1 µM (inactive) |  | 31 µM (inactive) | 16 µM (inactive) | 27.5 µM (inactive) |  | 4.29 µM (inactive) | 9.93 µM (inactive) | 4.67 µM (inactive) | 21.7 µM (inactive) |  | 16.1 µM (inactive) | 5.69 µM (inactive) | 8.69 µM (inactive) | 8.04 µM (inactive) | 12.5 µM (inactive) | 6.12 µM (inactive) | 5.61 µM (inactive) | 13.5 µM (inactive) | 21.3 µM (inactive)
12 | COc1ccc(/C=N/N=C(N)N)c(C(=O)O)c1OC | > 100 µM (inactive) | > 100 µM (inactive) | > 100 µM (inactive) | > 100 µM (inactive) | > 100 µM (inactive) |  | > 100 µM (inactive) | > 100 µM (inactive) | > 100 µM (inactive) | > 100 µM (inactive) | > 10 µM (inactive) | > 100 µM (inactive) | > 100 µM (inactive) | > 100 µM (inactive) | > 100 µM (inactive) | > 100 µM (inactive) | > 100 µM (inactive) | > 100 µM (inactive) |  | 
13 | C/N=c1/ssc(=S)n1C(C)C | 14.5 µM (inactive) | 2.3 µM (inactive) | 1.11 µM (active) | 25.8 µM (inactive) | > 100 µM (inactive) | 14.3 µM (inactive) | 12.4 µM (inactive) |  | 19.8 µM (inactive) |  | 17.5 µM (inactive) | 21.7 µM (inactive) | 10.8 µM (inactive) | 11.6 µM (inactive) | 3.3 µM (inactive) | 12 µM (inactive) | 7.5 µM (inactive) |  | 42 µM (inactive) | 18.9 µM (inactive)
14 | COc1cccc(/C=C2\CCCCCC2=O)c1 | > 100 µM (inactive) |  | 62.5 µM (inactive) |  | 19.7 µM (inactive) | > 100 µM (inactive) | > 100 µM (inactive) | > 100 µM (inactive) | 70.1 µM (inactive) | 65.3 µM (inactive) | > 100 µM (inactive) | > 100 µM (inactive) | 71.9 µM (inactive) | 31 µM (inactive) | > 100 µM (inactive) | > 100 µM (inactive) |  | > 100 µM (inactive) | > 100 µM (inactive) | > 100 µM (inactive)
15 | O=c1c(Cc2c(O)oc3cc(O)ccc3c2=O)c(O)oc2cc(O)ccc12 | > 100 µM (inactive) | > 100 µM (inactive) | 53.5 µM (inactive) | > 100 µM (inactive) | > 100 µM (inactive) | > 100 µM (inactive) | > 100 µM (inactive) | > 100 µM (inactive) | 41.8 µM (inactive) | > 100 µM (inactive) | > 100 µM (inactive) | > 100 µM (inactive) | > 100 µM (inactive) |  | > 100 µM (inactive) | > 100 µM (inactive) | > 100 µM (inactive) | 56.8 µM (inactive) | > 100 µM (inactive) | > 100 µM (inactive)
16 | Nc1[nH]cnc2ncnc1-2 [ADENINE] | 200 µM (inactive) | 36.6 µM (inactive) | 121 µM (inactive) | 49.7 µM (inactive) |  | 146 µM (inactive) |  | 96.2 µM (inactive) | > 96.6 µM (inactive) | 108 µM (inactive) | > 250 µM (inactive) |  |  | 168 µM (inactive) | > 121 µM (inactive) | 48.1 µM (inactive) | 30.1 µM (inactive) | > 126 µM (inactive) | > 250 µM (inactive) | 58.9 µM (inactive)
